Laboratory results from patent publication US6913748B2, “Cross-linkers with high reactivity and solubility and their use in the preparation of conjugates for targeted delivery of small molecule drugs” (Immunogen, Inc., priority 2002, dated 2005).

Tests used:
[1] = Unconjugated (free) drug by reverse phase HPLC analysis of the conjugate sample; conditions: N901-DM1 conjugate, 1.7-fold DM1
Protocol: (§1) The increased efficiency of conjugation using the SSNPP linker is accomplished without compromise in the monomeric character of the conjugate and in the amount of unconjugated (free) drug associated with the antibody conjugate. SEC analysis is used to determine the amount of monomer, dimer, trimer, or higher molecular weight aggregates. The level of unconjugated drug was measured by reverse phase HPLC analysis of the conjugate sample. The percent free drug for either reaction was less than 2%. In addition, shorter conjugation reaction times are possible with SSNPP compared with SPP (5), which may decrease loss of some antibodies that are sensitive to prolonged exposure to organic solvent required in the conjugation reaction. Shorter reaction times should also decrease drug loss due to DM1 dimerization, which is a competing side reaction during conjugation. The resulting increases in yield and reduced side reactions should further contribute to reduced DM1 requirements.

[2] = SEC analysis of conjugate (monomer, dimer, trimer, higher molecular weight aggregates); assay type: physicochemical; conditions: N901-DM1 conjugate; conjugation at pH 7.4, 2 hours, 1.7-fold DM1
Protocol: as §1

N901 antibody with DM1 = assay: Conjugation (disulfide exchange) of linker-modified N901 antibody with DM1; set-up: species or system murine; conditions: pH 7.4; 1.1-fold molar excess of DM1 per linker; compared with SPP-modified antibody
Protocol: SPP or SSNPP linker was dissolved in ethanol at a concentration of approximately 10 mM. Antibody was dialyzed into buffer A (50 mM KPi, 50 mM NaCl, 2 mM EDTA, pH 6.5). For the linker reaction, the antibody was at 8 mg/ml, and 7 equivalents of linker were added while stirring in the presence of 5% (v/v) ethanol. The reaction was allowed to proceed at ambient temperature for 90 minutes. Unreacted linker was removed from the antibody by Sephadex G25 gel filtration using a Sephadex G25 column equilibrated with Buffer A at pH 6.5 or 150 mM potassium phosphate buffer containing 100 mM NaCl, pH 7.4 as indicated. For the SPP linker, the extent of modification was assessed by release of pyridine-2-thione using 50 mM DTT and measuring the absorbance at 343 nm as described below (ε343=8080 M^−1 cm^−1 for free pyridine-2-thione). For SSNPP, modification was assessed directly by measuring the absorbance at 325 nm (ε325=10,964 M^−1 cm^−1 for the 4-nitropyridyl-2-dithio group linked to antibody). […] For DML, the extent of drug conjugation to antibody was assessed by measuring A252 and A280 of the conjugate as described below. […]
Calculating Ab and DM1 component concentrations of Ab-DM1. […] The components are quantified using the following algebraic expressions which account for the contribution of each component at each wavelength (CAb is the molar concentration of Ab and CD is the molar concentration of DM1): […]

[3] = Solubility of cross-linkers in water / aqueous solutions; assay type: physicochemical

% free drug ([1]; conjugation at pH 6.5, 2 hours) [%] | % free drug ([1]; conjugation at pH 7.4, 2 hours) [%] | SEC Analysis Dimer [2] [%] | SEC Analysis HMW [2] [%] | SEC Analysis Monomer [2] [%] | SEC Analysis Trimer [2] [%] | solubility in water / aqueous solutions [3] | Structure (SMILES) | time course of the reaction of DM1 with modified antibody (FIG. 8) (N901 antibody with DM1)
1.9 | 1.8 | 4.9 | 0.2 | 93.6 | 0.4 |  | CC(CCC(=O)ON1C(=O)CCC1=O)SSc1ccccn1 (centres unmarked) [SPP, reference compound] | 
0.9 | 0.8 | 6.3 | 0.1 | 91.9 | 0.6 | highly water-soluble | CC(CCC(=O)ON1C(=O)CC(S(=O)(=O)O)C1=O)SSc1ccc([N+](=O)[O-])cn1 (centres unmarked) [SSNPP, N-Sulfosuccinimidyl 4-(5-nitro-2-pyridyldithio)-pentanoate] | considerably faster
